US12162881B2, “Forms and compositions of inhibitors of JAK2” (Ajax Therapeutics, Inc., priority 2021, dated 2024)
≈ marks a conversion by molar mass, not a printed value. Where “and” joins values, the source holds several entries; their conditions need not be identical. Equal values may be shown once. Each block holds one compound with its values, some of them ahead of it.

Key:
Assay type in all cases: physicochemical
[1] = Approximate Aqueous Solubility of Selected Solid Forms; settings: ambient temperature; for solubility: water, thermodynamic from solid
Experimental: Aliquots of various solvents were added to measured amounts of provided compounds with agitation at ambient temperature until complete dissolution was achieved, as judged by visual observation. If dissolution occurred after the addition of the first aliquot, values were reported as “>”. Results are shown in Table 18, where A is <2 mg/mL; B is <1 mg/mL.

[2] = Physical Stability of Selected Solid Forms (vacuum oven, XRPD); settings: vac. oven
[3] = Solubility Study of Compound 1 Form 1 (solvent aliquot addition, visual observation); settings: thermodynamic from solid, read-out: Solubility at ambient temperature
Experimental: Aliquots of various solvents were added to measured amounts of Compound 1 Form 1 with agitation at ambient temperature until complete dissolution was achieved, as judged by visual observation. […] See Table 15 below, where A is 5-20 mg/mL; B is 1-4.9 mg/mL; and C is <1 mg/mL.

[4] = Dynamic vapor sorption (DVS) hygroscopicity; settings: for Hysteresis: in % (unit assumed); for DVS weight loss upon desorption / DVS weight loss upon desorption as water: desorption from 95% to 5% RH; for post-DVS XRPD: solid recovered after DVS cycle; for DVS hysteresis observation: sorption/desorption 5-95% RH
Experimental: Automated vapor sorption (VS) data were collected on a Surface Measurement System DVS Intrinsic instrument. Samples were not dried prior to analysis. Sorption and desorption data were collected over a range from 5% to 95% RH at 10% RH increments under a nitrogen purge. The equilibrium criterion used for analysis was less than 0.0100% weight change in 5 minutes with a maximum equilibration time of 3 hours. Data were not corrected for the initial moisture content of the samples.

[5] = Drying experiments of solvated Compound 1 materials (vacuum oven, XRPD); settings: vac., 1 d
Experimental: Drying experiments: Damp and solvated Compound 1 materials were placed in vacuum ovens set to ambient temperature or 80° C. for 1 day. Dried solids were analyzed by XRPD.

[6] = visual observation, read-out: Estimated Aqueous Solubility

XRPD Result (physical stability) ([2]; 45° C., 2 d): Compound 4 Form B
Compound: CC(=O)Nc1cc(Oc2cnc3nc(Nc4cc(C(F)(F)F)cn(C)c4=O)n(C)c3c2C#N)ccn1.CS(=O)(=O)O [Compound 4 Form A, N-(4-((7-cyano-1-methyl-2-((1-methyl-2-oxo-5-(trifluoromethyl)-1,2-dihydropyridin-3-yl)amino)-1H-imidazo[4,5-h]pyridin-6-yl)oxy)pyridin-2-yl)acetamide mesylate]

XRPD Result (physical stability) ([2]; RT, 5 d): Compound 5 Form C
Compound: CC(=O)Nc1cc(Oc2cnc3nc(Nc4cc(C(F)(F)F)cn(C)c4=O)n(C)c3c2C#N)ccn1 [Compound 5 Form A, N-(4-((7-cyano-1-methyl-2-((1-methyl-2-oxo-5-(trifluoromethyl)-1,2-dihydropyridin-3-yl)amino)-1H-imidazo[4,5-b]pyridin-6-yl)oxy)pyridin-2-yl)acetamide camsylate]

solubility [1, 6]: < 1000 µg/mL | XRPD Result (physical stability) ([2]; RT, 5 d): Esylate Form A
Compound: CC(=O)Nc1cc(Oc2cnc3nc(Nc4cc(C(F)(F)F)cn(C)c4=O)n(C)c3c2C#N)ccn1.CCS(=O)(=O)O [Esylate Form A, N-(4-((7-cyano-1-methyl-2-((1-methyl-2-oxo-5-(trifluoromethyl)-1,2-dihydropyridin-3-yl)amino)-1H-imidazo[4,5-b]pyridin-6-yl)oxy)pyridin-2-yl)acetamide esylate]

solubility [1, 6]: < 1000 µg/mL | XRPD Result (physical stability) ([2]; RT, 5 d): Phosphate Form A
Compound: CC(=O)Nc1cc(Oc2cnc3nc(Nc4cc(C(F)(F)F)cn(C)c4=O)n(C)c3c2C#N)ccn1.O=P(O)(O)O [Phosphate Form A, N-(4-((7-cyano-1-methyl-2-((1-methyl-2-oxo-5-(trifluoromethyl)-1,2-dihydropyridin-3-yl)amino)-1H-imidazo[4,5-b]pyridin-6-yl)oxy)pyridin-2-yl)acetamide phosphate]

Second part, the compound before the results:

Compound: CC(=O)Nc1cc(Oc2cnc3nc(Nc4cc(C(F)(F)F)cn(C)c4=O)n(C)c3c2C#N)ccn1.O=S(=O)(O)c1ccccc1 [Besylate Form A, N-(4-((7-cyano-1-methyl-2-((1-methyl-2-oxo-5-(trifluoromethyl)-1,2-dihydropyridin-3-yl)amino)-1H-imidazo[4,5-b]pyridin-6-yl)oxy)pyridin-2-yl)acetamide besylate]
solubility [1, 6]: < 1000 µg/mL | XRPD Result (physical stability) ([2]; RT, 5 d): Besylate Form C

Compound: CC(=O)Nc1cc(Oc2cnc3nc(Nc4cc(C(F)(F)F)cn(C)c4=O)n(C)c3c2C#N)ccn1 [Compound 1 Form 1, N-(4-((7-cyano-1-methyl-2-((1-methyl-2-oxo-5-(trifluoromethyl)-1,2-dihydropyridin-3-yl)amino)-1H-imidazo[4,5-b]pyridin-6-yl)oxy)pyridin-2-yl)acetamide]
solubility ([3]; organic solvent or mixture, solvent ACN): < 1000 µg/mL | solubility ([3]; organic solvent or mixture, solvent DCM): < 1000 µg/mL | solubility ([3]; organic solvent or mixture, solvent DMA): 5000 to 20000 µg/mL (≈ 10000 to 40100 µM) | solubility ([3]; organic solvent or mixture, solvent MeOH): < 1000 µg/mL | solubility ([3]; organic solvent or mixture, solvent TFE): 5000 to 20000 µg/mL (≈ 10000 to 40100 µM) | solubility ([3]; organic solvent or mixture, solvent THF): 1000 to 4900 µg/mL (≈ 2010 to 9830 µM) | solubility ([3]; organic solvent or mixture, solvent acetone): < 1000 µg/mL | solubility ([3]; water, solvent H2O): < 1000 µg/mL | Desorp Mass Change (%) ([4]; Target RH 5.0%): −0.011% | Sorp Mass Change (%) ([4]; Target RH 5.0%): 0.001% | Desorp Mass Change (%) ([4]; Target RH 15.0%): 0.103% | Sorp Mass Change (%) ([4]; Target RH 15.0%): 0.068% | Hysteresis ([4]; Target RH 15.0%): 0.036 | Desorp Mass Change (%) ([4]; Target RH 25.0%): 3.654% | Sorp Mass Change (%) ([4]; Target RH 25.0%): 0.118% | Hysteresis ([4]; Target RH 25.0%): 3.536 | Desorp Mass Change (%) ([4]; Target RH 35.0%): 3.877% | Sorp Mass Change (%) ([4]; Target RH 35.0%): 0.292% | Hysteresis ([4]; Target RH 35.0%): 3.585 | Desorp Mass Change (%) ([4]; Target RH 45.0%): 4.084% | Sorp Mass Change (%) ([4]; Target RH 45.0%): 0.396% | Hysteresis ([4]; Target RH 45.0%): 3.687 | Desorp Mass Change (%) ([4]; Target RH 55.0%): 4.203% | Sorp Mass Change (%) ([4]; Target RH 55.0%): 3.757% | Hysteresis ([4]; Target RH 55.0%): 0.446 | Desorp Mass Change (%) ([4]; Target RH 65.0%): 4.403% | Sorp Mass Change (%) ([4]; Target RH 65.0%): 4.049% | Hysteresis ([4]; Target RH 65.0%): 0.354 | Desorp Mass Change (%) ([4]; Target RH 75.0%): 4.578% | Sorp Mass Change (%) ([4]; Target RH 75.0%): 4.282% | Hysteresis ([4]; Target RH 75.0%): 0.296 | Desorp Mass Change (%) ([4]; Target RH 85.0%): 4.677% | Sorp Mass Change (%) ([4]; Target RH 85.0%): 4.534% | Hysteresis ([4]; Target RH 85.0%): 0.142 | Desorp Mass Change (%) ([4]; Target RH 95.0%): 4.804% | Sorp Mass Change (%) ([4]; Target RH 95.0%): 4.804% | DVS weight loss ([4]; desorption from 25% to 15% RH): 3.55% | DVS weight loss as water ([4]; desorption from 25% to 15% RH): 1.0 mol/mol H2O | DVS weight loss upon desorption [4]: 4.82% | DVS weight loss upon desorption as water [4]: 1.4 mol/mol H2O | post-DVS XRPD [4]: very similar | DVS weight gain ([4]; sorption from 5% to 95% RH): 4.80% | DVS weight gain as water uptake ([4]; sorption from 5% to 95% RH): 1.4 mol/mol H2O | DVS weight gain ([4]; sorption from 45% to 55% RH): 3.36% | DVS weight gain as water uptake ([4]; sorption from 45% to 55% RH): 1.0 mol/mol H2O | DVS hysteresis observation [4]: hysteresis evident

Compound: CC(=O)Nc1cc(Oc2cnc3nc(Nc4cc(C(F)(F)F)cn(C)c4=O)n(C)c3c2C#N)ccn1 [Compound 1 Form D, N-(4-((7-cyano-1-methyl-2-((1-methyl-2-oxo-5-(trifluoromethyl)-1,2-dihydropyridin-3-yl)amino)-1H-imidazo[4,5-b]pyridin-6-yl)oxy)pyridin-2-yl)acetamide]
XRPD Result after drying ([5]; 80° C.): Form D + peaks (some disorder) | XRPD Result after drying ([5]; RT, listed as Form D): Form D^a

Compound: CC(=O)Nc1cc(Oc2cnc3nc(Nc4cc(C(F)(F)F)cn(C)c4=O)n(C)c3c2C#N)ccn1 [Compound 1 Form E, N-(4-((7-cyano-1-methyl-2-((1-methyl-2-oxo-5-(trifluoromethyl)-1,2-dihydropyridin-3-yl)amino)-1H-imidazo[4,5-b]pyridin-6-yl)oxy)pyridin-2-yl)acetamide]
XRPD Result after drying ([5]; RT, listed as Form E): Form H (some disorder)

Compound: CC(=O)Nc1cc(Oc2cnc3nc(Nc4cc(C(F)(F)F)cn(C)c4=O)n(C)c3c2C#N)ccn1.Cl [Compound 2 Form A, N-(4-((7-cyano-1-methyl-2-((1-methyl-2-oxo-5-(trifluoromethyl)-1,2-dihydropyridin-3-yl)amino)-1H-imidazo[4,5-b]pyridin-6-yl)oxy)pyridin-2-yl)acetamide hydrochloride]
solubility [1, 6]: < 2000 µg/mL | solubility ([1]; read-out: Aqueous solubility, visually approximated): < 2000 µg/mL | Desorp Mass Change (%) ([4]; Target RH 5.0%): −0.0582% | Sorp Mass Change (%) ([4]; Target RH 5.0%): 0.0009% | Desorp Mass Change (%) ([4]; Target RH 15.0%): 0.0326% | Sorp Mass Change (%) ([4]; Target RH 15.0%): 0.0521% | Hysteresis ([4]; Target RH 15.0%): −0.0195 | Desorp Mass Change (%) ([4]; Target RH 25.0%): 0.0900% | Sorp Mass Change (%) ([4]; Target RH 25.0%): 0.0998% | Hysteresis ([4]; Target RH 25.0%): −0.0098 | Desorp Mass Change (%) ([4]; Target RH 35.0%): 0.1559% | Sorp Mass Change (%) ([4]; Target RH 35.0%): 0.1539% | Hysteresis ([4]; Target RH 35.0%): 0.0020 | Desorp Mass Change (%) ([4]; Target RH 45.0%): 0.2304% | Sorp Mass Change (%) ([4]; Target RH 45.0%): 0.2007% | Hysteresis ([4]; Target RH 45.0%): 0.0297 | Desorp Mass Change (%) ([4]; Target RH 55.0%): 0.3159% | Sorp Mass Change (%) ([4]; Target RH 55.0%): 0.2634% | Hysteresis ([4]; Target RH 55.0%): 0.0525 | Desorp Mass Change (%) ([4]; Target RH 65.0%): 0.4283% | Sorp Mass Change (%) ([4]; Target RH 65.0%): 0.3387% | Hysteresis ([4]; Target RH 65.0%): 0.0896 | Desorp Mass Change (%) ([4]; Target RH 75.0%): 0.5577% | Sorp Mass Change (%) ([4]; Target RH 75.0%): 0.5032% | Hysteresis ([4]; Target RH 75.0%): 0.0545 | Desorp Mass Change (%) ([4]; Target RH 85.0%): 0.6871% | Sorp Mass Change (%) ([4]; Target RH 85.0%): 0.6403% | Hysteresis ([4]; Target RH 85.0%): 0.0468 | Desorp Mass Change (%) ([4]; Target RH 95.0%): 0.9477% | Sorp Mass Change (%) ([4]; Target RH 95.0%): 0.9477% | DVS weight loss upon desorption as water [4]: 0.3 mol/mol H2O | DVS weight loss upon desorption ([4]; hydrochloride): 1.01% and 1.0059% | post-DVS XRPD [4]: Compound 2 Form A | DVS weight gain as water uptake ([4]; sorption from 5% to 95% RH): 0.3 mol/mol H2O | DVS weight gain ([4]; sorption from 5% to 95% RH, hydrochloride): 0.95% and 0.9468% | DVS hysteresis observation [4]: No hysteresis was observed

Compound: Br.CC(=O)Nc1cc(Oc2cnc3nc(Nc4cc(C(F)(F)F)cn(C)c4=O)n(C)c3c2C#N)ccn1 [Compound 3 Form A, N-(4-((7-cyano-1-methyl-2-((1-methyl-2-oxo-5-(trifluoromethyl)-1,2-dihydropyridin-3-yl)amino)-1H-imidazo[4,5-b]pyridin-6-yl)oxy)pyridin-2-yl)acetamide hydrobromide]
XRPD Result (physical stability) ([2]; 45° C., 2 d): Compound 3 Form A +

Compound: N-(4-((7-cyano-1-methyl-2-((1-methyl-2-oxo-5-(trifluoromethyl)-1,2-dihydropyridin-3-yl)amino)-1H-imidazo[4,5-b]pyridin-6-yl)oxy)pyridin-2-yl)acetamide edisylate [Edisylate Form A]
Estimated Aqueous Solubility (mg/mL) ([1]; visual observation): B (B is <1 mg/mL) | XRPD Result (physical stability) ([2]; RT, 5 d): Edisylate Form C
